Experimental data taken from patent US20250059183A1, “PYRIDINE[4,3-D]PYRIMIDINE COMPOUND AS TLR7/8 AGONIST” (SHANGHAI VISONPHARMA CO., LTD., priority 2021, published 2025).
pEC50: −log10 of the molar value.

Experiments:
human TLR8 = target: T1, human TLR8 (Homo sapiens, UniProt Q9NR97); experiment: HEK-Blue hTLR8 SEAP reporter gene agonist assay; type: cell-based; conditions: HEK-Blue hTLR8 cells, 16 to 22 hours incubation
T1 construct: host or cells: HEK-Blue hTLR8 (HEK293-derived reporter cells)
T1 sequence (Q9NR97 27-1041): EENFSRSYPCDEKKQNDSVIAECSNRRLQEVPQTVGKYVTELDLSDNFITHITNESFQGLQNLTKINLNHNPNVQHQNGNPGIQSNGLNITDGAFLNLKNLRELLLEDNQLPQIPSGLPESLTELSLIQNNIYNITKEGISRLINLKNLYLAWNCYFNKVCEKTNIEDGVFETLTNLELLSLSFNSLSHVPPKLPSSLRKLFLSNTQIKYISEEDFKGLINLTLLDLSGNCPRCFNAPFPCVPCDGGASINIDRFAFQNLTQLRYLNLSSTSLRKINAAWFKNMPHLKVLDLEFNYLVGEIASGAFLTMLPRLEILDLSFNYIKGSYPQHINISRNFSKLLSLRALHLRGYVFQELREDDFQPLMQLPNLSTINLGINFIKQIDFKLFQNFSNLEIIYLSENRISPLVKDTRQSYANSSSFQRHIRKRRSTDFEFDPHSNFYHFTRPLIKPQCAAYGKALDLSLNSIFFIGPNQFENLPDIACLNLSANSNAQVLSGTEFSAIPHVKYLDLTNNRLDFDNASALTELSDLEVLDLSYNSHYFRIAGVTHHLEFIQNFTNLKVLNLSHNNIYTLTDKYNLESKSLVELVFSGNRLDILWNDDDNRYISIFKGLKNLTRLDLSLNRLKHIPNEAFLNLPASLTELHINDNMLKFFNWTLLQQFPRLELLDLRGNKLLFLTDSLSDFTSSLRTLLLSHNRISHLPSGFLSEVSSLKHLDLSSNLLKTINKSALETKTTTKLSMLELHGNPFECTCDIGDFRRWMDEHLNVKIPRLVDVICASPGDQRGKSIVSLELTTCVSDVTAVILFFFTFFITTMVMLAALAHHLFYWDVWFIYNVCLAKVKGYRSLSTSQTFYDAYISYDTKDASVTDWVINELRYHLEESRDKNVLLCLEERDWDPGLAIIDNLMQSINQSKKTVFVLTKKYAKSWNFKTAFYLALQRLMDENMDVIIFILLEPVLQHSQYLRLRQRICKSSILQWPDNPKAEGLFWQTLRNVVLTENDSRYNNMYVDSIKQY
Summary of the method: (§1)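 HEK-Blue cells stably expressing human TLR7 or TLR8 carry a SEAP reporter driven by a minimal IFN-β promoter fused to 5×NF-κB and AP-1 sites. Compounds at […] final, 16 to 22 h. SEAP in the medium measured with Quanti-blue at OD650, and EC50 derived.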

human TLR7 = target: T2, human TLR7 (Homo sapiens, UniProt Q9NYK1); experiment: HEK-Blue hTLR7 SEAP reporter gene agonist assay; type: cell-based; conditions: HEK-Blue hTLR7 cells, 16 to 22 hours incubation
T2 construct: host or cells: HEK-Blue hTLR7 (HEK293-derived reporter cells)
T2 sequence (Q9NYK1 27-1049): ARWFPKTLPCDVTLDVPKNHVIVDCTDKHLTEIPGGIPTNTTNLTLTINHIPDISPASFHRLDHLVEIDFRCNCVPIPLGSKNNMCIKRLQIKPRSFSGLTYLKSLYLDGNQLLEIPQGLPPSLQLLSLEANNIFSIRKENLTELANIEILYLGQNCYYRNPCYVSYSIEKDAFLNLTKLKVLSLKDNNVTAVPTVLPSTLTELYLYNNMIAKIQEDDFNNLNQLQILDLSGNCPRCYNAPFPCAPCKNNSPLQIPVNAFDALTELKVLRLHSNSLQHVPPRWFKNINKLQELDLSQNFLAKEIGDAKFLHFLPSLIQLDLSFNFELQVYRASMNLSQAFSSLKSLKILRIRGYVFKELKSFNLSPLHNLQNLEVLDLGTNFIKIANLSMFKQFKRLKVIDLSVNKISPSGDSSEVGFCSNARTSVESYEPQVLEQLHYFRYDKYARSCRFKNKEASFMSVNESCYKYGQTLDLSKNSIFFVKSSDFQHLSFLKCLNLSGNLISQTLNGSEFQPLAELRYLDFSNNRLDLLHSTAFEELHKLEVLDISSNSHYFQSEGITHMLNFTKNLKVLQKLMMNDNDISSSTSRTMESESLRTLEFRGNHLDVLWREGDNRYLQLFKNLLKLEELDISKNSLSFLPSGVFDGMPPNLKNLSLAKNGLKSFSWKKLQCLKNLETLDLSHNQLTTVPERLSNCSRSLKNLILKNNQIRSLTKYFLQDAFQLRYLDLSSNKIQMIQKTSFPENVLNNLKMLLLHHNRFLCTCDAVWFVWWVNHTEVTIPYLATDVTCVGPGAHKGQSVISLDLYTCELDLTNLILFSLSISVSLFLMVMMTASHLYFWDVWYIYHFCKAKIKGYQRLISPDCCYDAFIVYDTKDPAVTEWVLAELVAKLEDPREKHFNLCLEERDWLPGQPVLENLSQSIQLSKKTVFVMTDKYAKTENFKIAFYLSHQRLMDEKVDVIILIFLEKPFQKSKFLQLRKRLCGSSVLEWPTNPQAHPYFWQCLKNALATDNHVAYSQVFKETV
Summary of the method: as §1

| Structure (SMILES) | pEC50 (human TLR8) | pEC50 (human TLR7) |
| --- | --- | --- |
| CCC[C@@H](C)Nc1nc(N)nc2ccn(Cc3ccc(C(=O)N4CCN(CCO)CC4)cc3OC)c(=O)c12 [Compound I-123, (R)-2-amino-6-(4-(4-(2-hydroxyethyl)piperazine-1-carbonyl)-2-methoxybenzyl)-4-(pentan-2-ylamino)pyrido[4,3-d]pyrimidin-5(6H)-one] | 7.47 | 7.64 |
| CCC[C@@H](C)Nc1nc(N)nc2ccn(Cc3ccc(CN4CCNCC4)cc3OC)c(=O)c12 [Compound I-184, (R)-2-amino-6-(2-methoxy-4-(piperazin-1-ylmethyl)benzyl)-4-(pentan-2-ylamino)pyrido[4,3-d]pyrimidin-5(6H)-one] | 6.97 | 7.02 |
| CCC[C@@H](C)Nc1nc(N)nc2ccn(Cc3ccc(CN4CCN(C)CC4)cc3OC)c(=O)c12 [Compound I-179, (R)-2-amino-6-(2-methoxy-4-((4-methylpiperazin-1-yl)methyl)benzyl)-4-(pentan-2-ylamino)pyrido[4,3-d]pyrimidin-5(6H)-one] | 7.24 | 7.04 |
| CCC[C@@H](C)Nc1nc(N)nc2ccn(Cc3ccc(CN(C)CCO)cc3OC)c(=O)c12 [Compound I-160, (R)-2-amino-6-(4-(((2-hydroxyethyl)(methyl)amino)methyl)-2-methoxybenzyl)-4-(pentan-2-ylamino)pyrido[4,3-d]pyrimidin-5(6H)-one] | 7.70 | 7.70 |
| CCCCNc1nc(N)nc2ccn(Cc3ccc(C(=O)N4CCNCC4)cc3)c(=O)c12 [Compound I-14, 2-amino-4-(butylamino)-6-(4-(piperazine-1-carbonyl)benzyl)pyrido[4,3-d]pyrimidin-5(6H)-one] | 7.11 | 7.07 |
| CCC[C@@H](C)Nc1nc(N)nc2ccn(Cc3ccc(CN4CCCC4)cc3)c(=O)c12 [Compound I-103, (R)-2-amino-4-(pentan-2-ylamino)-6-(4-(pyrrolidin-1-ylmethyl)benzyl)pyrido[4,3-d]pyrimidin-5(6H)-one] | 7.33 | 7.19 |
| CCC[C@@H](C)Nc1nc(N)nc2ccn(Cc3ccc(CN(CCC)CCO)cc3OC)c(=O)c12 [Compound I-165, (R)-2-amino-6-(4-(((2-hydroxyethyl)(propyl)amino)methyl)-2-methoxybenzyl)-4-(pentan-2-ylamino)pyrido[4,3-d]pyrimidin-5(6H)-one] | 7.22 | 7.40 |
| CCC[C@@H](C)Nc1nc(N)nc2ccn(Cc3ccc(CN(CCO)CCO)cc3OC)c(=O)c12 [Compound I-166, (R)-2-amino-6-(4-((bis(2-hydroxyethyl)amino)methyl)-2-methoxybenzyl)-4-(pentan-2-ylamino)pyrido[4,3-d]pyrimidin-5(6H)-one] | 7.52 | 7.52 |
| CCCCNc1nc(N)nc2ccn(Cc3ccc(CN(CCC)CCO)cc3)c(=O)c12 [Compound I-98, 2-amino-4-(butylamino)-6-(4-(((2-hydroxyethyl)(propyl)amino)methyl)benzyl)pyrido[4,3-d]pyrimidin-5(6H)-one] | 7.07 | 7.00 |
| CCC[C@@H](CO)Nc1nc(N)nc2ccn(Cc3ccc(CNC)cc3OC)c(=O)c12 [Compound I-214, (S)-2-amino-4-((1-hydroxypentan-2-yl)amino)-6-(2-methoxy-4-((methylamino)methyl)benzyl)pyrido[4,3-d]pyrimidin-5(6H)-one] | 8.52 | 7.07 |
| CCCCNc1nc(N)nc2ccn(Cc3ccc(CN4CCCC4)cc3F)c(=O)c12 [Compound I-51, 2-amino-4-(butylamino)-6-(2-fluoro-4-(pyrrolidin-1-ylmethyl)benzyl)pyrido[4,3-d]pyrimidin-5(6H)-one] | 7.06 | 7.01 |
| CCC[C@@H](C)Nc1nc(N)nc2ccn(Cc3ccc(CN4CC5(COC5)C4)cc3)c(=O)c12 [Compound I-150, (R)-6-(4-((2-oxa-6-azaspiro[3.3]heptan-6-yl)methyl)benzyl)-2-amino-4-(pentan-2-ylamino)pyrido[4,3-d]pyrimidin-5(6H)-one] | 7.52 | 7.40 |
| CCCCNc1nc(N)nc2ccn(Cc3ccc(CN(C)C)cc3)c(=O)c12 [Compound I-35, 2-amino-4-(butylamino)-6-(4-((dimethylamino)methyl)benzyl)pyrido[4,3-d]pyrimidin-5(6H)-one] | 7.24 | 7.06 |
| CCC[C@@H](CC)Nc1nc(N)nc2ccn(Cc3ccc(CN4CCCC4)cc3)c(=O)c12 [Compound I-138, (R)-2-amino-4-(hexan-3-ylamino)-6-(4-(pyrrolidin-1-ylmethyl)benzyl)pyrido[4,3-d]pyrimidin-5(6H)-one] | 7.01 | 7.24 |
| CCC[C@@H](C)Nc1nc(N)nc2ccn(Cc3ccc(C(=O)N4CCNCC4)cc3)c(=O)c12 [Compound I-117, (R)-2-amino-4-(pentan-2-ylamino)-6-(4-(piperazine-1-carbonyl)benzyl)pyrido[4,3-d]pyrimidin-5(6H)-one] | 7.31 | 7.26 |
